Results from US20250228887A1, “OPHTHALMIC COMPOSITION” (ROHTO PHARMACEUTICAL CO., LTD., priority 2021, published 2025).

Assays:
[1] = test system: human corneal epithelial cell line HCE-T cells; assay: Cell dry test (first invention, Test Example 13); assay type: cell-based; conditions: 8, 13, 14 vs test solution 4; 11, 12 vs test solution 5; 1% vs 0.5%
Procedure: Ophthalmic compositions were prepared according to a general method using the formulations shown in Table 12 and used as test solutions. The units of the components in Table 12 are w/v % unless specified in the table. 100 μL of human corneal epithelial cell line HCE-T cells at a concentration of 1×10^5 cells/mL was seeded in each well in a 96-well plate (commercially available from Corning Inc.), and cultured in a CO2 incubator set at 37° C., a humidity of 90%, and a concentration of 5% CO2 until the cells became confluent. […] After each ophthalmic composition was removed by suction from each well, drought stress was applied by leaving it in a clean bench for 20 minutes, and the number of viable cells was then evaluated. In order to evaluate the number of viable cells, 10 μL of a cell number measurement reagent (Cell counting kit-8, commercially available from Dojindo Molecular Technologies, Inc.) per 100 μL of the medium was put into each well, and culturing was performed under conditions of 37° C., 5% CO2, and a humidity of 90% for 2 to 3 hours, and measurement was then performed using an absorbance meter (commercially available from MOLECULAR DEVICES) at 450 nm. Here, the higher the value of the absorbance, the greater the number of viable cells.

rabbits = assay: Drought stress test using rabbits (first invention, Test Example 1); assay type: in vivo, Japanese white rabbits; conditions: 0.5 w/v % or 3 w/v % in saline, 100 μL per eye, eyelids open 3 hours; compared with Mw about 25,000; **p<0.01 Tukey; FIG. 1
Procedure: Each test substance was prepared by dissolving sodium chondroitin sulfate having a weight-average-molecular weight of about 25,000 (commercially available from Maruha Nichiro Corporation; over-the-counter sodium chondroitin sulfate) or sodium chondroitin sulfate having a weight-average-molecular weight of about 56,000 (commercially available from Seikagaku Corporation; Grade N-K) so that the content was 0.5 w/v % or 3 w/v %, respectively, in a saline (commercially available from Otsuka Pharmaceutical Factory, Inc.).
According to the method used by Nagano et al. (New Ophthalmology, 13(2), 267-270, 1996), rabbits divided into 5 groups (n=5) (Japanese white rabbits (commercially available from Kitayama Labes Co. Ltd.)) were subjected to general anesthesia, and then gloves with ring-shaped fingers were put on their left and right eyeballs and the eyelids were forcibly opened. […] After the cornea was removed from the ocular surface, the methylene blue dye was extracted, and the absorbance was measured using a microplate reader Multiskan GO (commercially available from Thermo Fisher Scientific) at 660 nm. Here, eye dryness caused corneal damage, and increased the amount of dye adhered to the cornea surface, and thus it could be evaluated that the higher the absorbance value, the drier the eyes were.

sodium chondroitin sulfate was tested, and the “number of viable cells after drought stress, comparison in words” value [1] was “the number of viable cells significantly increased at 1%” and the “absorbance at 660 nm of methylene blue dye extracted from the cornea (corneal damage caused by eye dryness), in words” value (rabbits) was “significantly lower absorbance”.
